# Measurements from PubChem BioAssay AID1919014 (Molecular Pharmacology Branch, DTP, NCI, 2023).
# Several values for one entry are separate records, joined by “and”; a condition that tells them apart may be missing. Identical values can stand only once.
# System: NCI-H1341 complex spheroids, percent test/control
# Experiment: Anticancer human tumor NCI-H1341 cell line growth inhibition [AhR];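 note: spheroids exposed to agents for seven days before readout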
# Conditions: for IC50: curve of first compound; for viability, T/C: stronger effect = lower value
# Method in brief: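 Agents were dosed in half-log steps down from roughly clinical Cmax, or from 10 microM where Cmax was unknown, alone and with AhR antagonists. Read-out: percent test/control growth of tumor spheroids containing HUVEC and MSC stromal cells.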
# [1] = second compound 0.1 µM, first compound 0.0316 µM
# [2] = second compound 0.1 µM, first compound 0.1 µM
# [3] = second compound 0.316 µM, first compound 0.0316 µM
# [4] = second compound 0.316 µM, first compound 0.1 µM
# [5] = second compound 1 µM, first compound 0.0316 µM
# [6] = second compound 1 µM, first compound 0.1 µM
# [7] = second compound 3.16 µM, first compound 0.0316 µM
# [8] = second compound 3.16 µM, first compound 0.1 µM
# [9] = second compound 10 µM, first compound 0.0316 µM
# [10] = second compound 10 µM, first compound 0.1 µM
# [11] = second compound 0.1 µM, first compound 0.316 µM
# [12] = second compound 0.1 µM, first compound 1 µM
# [13] = second compound 0.1 µM, first compound 3.16 µM
# [14] = second compound 0.1 µM, first compound 10 µM
# [15] = second compound 0.316 µM, first compound 0.316 µM
# [16] = second compound 0.316 µM, first compound 1 µM
# [17] = second compound 0.316 µM, first compound 3.16 µM
# [18] = second compound 0.316 µM, first compound 10 µM
# [19] = second compound 1 µM, first compound 0.316 µM
# [20] = second compound 1 µM, first compound 1 µM
# [21] = second compound 1 µM, first compound 3.16 µM
# [22] = second compound 1 µM, first compound 10 µM
# [23] = second compound 3.16 µM, first compound 0.316 µM
# [24] = second compound 3.16 µM, first compound 1 µM
# [25] = second compound 3.16 µM, first compound 3.16 µM
# [26] = second compound 3.16 µM, first compound 10 µM
# [27] = second compound 10 µM, first compound 0.316 µM
# [28] = second compound 10 µM, first compound 1 µM
# [29] = second compound 10 µM, first compound 3.16 µM
# [30] = second compound 10 µM, first compound 10 µM
smiles,measurement,setting,value
Cn1ncnc1C1c2n[nH]c(=O)c3cc(F)cc(c23)NC1c1ccc(F)cc1 (stereo unspecified) + Cc1ccccc1N=Nc1ccc(NC(=O)c2ccnn2C)c(C)c1,IC50,second compound 0.1 µM,> 100 nM
same,IC50,second compound 0.316 µM,> 100 nM
same,IC50,second compound 1 µM,> 100 nM
same,IC50,second compound 3.16 µM,> 100 nM
same,IC50,second compound 10 µM,70.1 nM
same,"viability, T/C","second compound 0.1 µM, first compound 0.000316 µM",112%
same,"viability, T/C","second compound 0.1 µM, first compound 0.001 µM",105%
same,"viability, T/C","second compound 0.1 µM, first compound 0.00316 µM",80.9%
same,"viability, T/C","second compound 0.1 µM, first compound 0.01 µM",86.1%
same,"viability, T/C",[1],95.2%
same,"viability, T/C",[2],90.1%
same,"viability, T/C","second compound 0.316 µM, first compound 0.000316 µM",89.9%
same,"viability, T/C","second compound 0.316 µM, first compound 0.001 µM",103%
same,"viability, T/C","second compound 0.316 µM, first compound 0.00316 µM",93.6%
same,"viability, T/C","second compound 0.316 µM, first compound 0.01 µM",101%
same,"viability, T/C",[3],90.9%
same,"viability, T/C",[4],84.5%
same,"viability, T/C","second compound 1 µM, first compound 0.000316 µM",101%
same,"viability, T/C","second compound 1 µM, first compound 0.001 µM",94.2%
same,"viability, T/C","second compound 1 µM, first compound 0.00316 µM",80.2%
same,"viability, T/C","second compound 1 µM, first compound 0.01 µM",88.8%
same,"viability, T/C",[5],84.9%
same,"viability, T/C",[6],59.6%
same,"viability, T/C","second compound 3.16 µM, first compound 0.000316 µM",75.6%
same,"viability, T/C","second compound 3.16 µM, first compound 0.001 µM",72.5%
same,"viability, T/C","second compound 3.16 µM, first compound 0.00316 µM",83.7%
same,"viability, T/C","second compound 3.16 µM, first compound 0.01 µM",79%
same,"viability, T/C",[7],70.5%
same,"viability, T/C",[8],54.6%
same,"viability, T/C","second compound 10 µM, first compound 0.000316 µM",56.3%
same,"viability, T/C","second compound 10 µM, first compound 0.001 µM",56.5%
same,"viability, T/C","second compound 10 µM, first compound 0.00316 µM",47.7%
same,"viability, T/C","second compound 10 µM, first compound 0.01 µM",59.9%
same,"viability, T/C",[9],58.2%
same,"viability, T/C",[10],41.7%
COc1cc(Nc2ncc3c(n2)-c2ccc(Cl)cc2C(c2c(F)cccc2OC)=NC3)ccc1C(=O)O + Cc1cncc(-c2nc(NCCc3c[nH]c4ccccc34)c3ncn(C(C)C)c3n2)c1,IC50,second compound 0.1 µM,< 31.6 nM
same,IC50,second compound 0.316 µM,< 31.6 nM
same,IC50,second compound 1 µM,< 31.6 nM
same,IC50,second compound 3.16 µM,< 31.6 nM
same,IC50,second compound 10 µM,< 31.6 nM
same,"viability, T/C",[1],38.2%
same,"viability, T/C",[2],42.3%
same,"viability, T/C",[11],38.9%
same,"viability, T/C",[12],31.2%
same,"viability, T/C",[13],24.2%
same,"viability, T/C",[14],21%
same,"viability, T/C",[3],37.1%
same,"viability, T/C",[4],37.1%
same,"viability, T/C",[15],34.9%
same,"viability, T/C",[16],23.9%
same,"viability, T/C",[17],26.9%
same,"viability, T/C",[18],22.3%
same,"viability, T/C",[5],36.1%
same,"viability, T/C",[6],39.9%
same,"viability, T/C",[19],34.3%
same,"viability, T/C",[20],30.1%
same,"viability, T/C",[21],25.8%
same,"viability, T/C",[22],20.5%
same,"viability, T/C",[7],42.2%
same,"viability, T/C",[8],37.7%
same,"viability, T/C",[23],40.2%
same,"viability, T/C",[24],37.5%
same,"viability, T/C",[25],27.5%
same,"viability, T/C",[26],24%
same,"viability, T/C",[9],25.4%
same,"viability, T/C",[10],30.3%
same,"viability, T/C",[27],29.8%
same,"viability, T/C",[28],24.2%
same,"viability, T/C",[29],21.2%
same,"viability, T/C",[30],19.4%
CC1COCCN1c1cc(C2(S(C)(=N)=O)CC2)nc(-c2ccnc3[nH]ccc23)n1 (stereo unspecified) + Cc1ccccc1N=Nc1ccc(NC(=O)c2ccnn2C)c(C)c1,IC50,second compound 0.1 µM,1600 nM
same,IC50,second compound 0.316 µM,3530 nM
same,IC50,second compound 1 µM,3150 nM
same,IC50,second compound 3.16 µM,2110 nM
same,IC50,second compound 10 µM,721 nM
same,"viability, T/C",[1],92.7%
same,"viability, T/C",[2],92.3%
same,"viability, T/C",[11],94.4%
same,"viability, T/C",[12],57.6%
same,"viability, T/C",[13],45.2%
same,"viability, T/C",[14],30.3%
same,"viability, T/C",[3],77.1%
same,"viability, T/C",[4],108%
same,"viability, T/C",[15],89%
same,"viability, T/C",[16],81.2%
same,"viability, T/C",[17],52.2%
same,"viability, T/C",[18],31.1%
same,"viability, T/C",[5],88.2%
same,"viability, T/C",[6],114%
same,"viability, T/C",[19],83.2%
same,"viability, T/C",[20],84.3%
same,"viability, T/C",[21],48.6%
same,"viability, T/C",[22],29.4%
same,"viability, T/C",[7],77.9%
same,"viability, T/C",[8],90.2%
same,"viability, T/C",[23],69.2%
same,"viability, T/C",[24],63.4%
same,"viability, T/C",[25],43.6%
same,"viability, T/C",[26],26%
same,"viability, T/C",[9],55.9%
same,"viability, T/C",[10],57.5%
same,"viability, T/C",[27],55.5%
same,"viability, T/C",[28],47.6%
same,"viability, T/C",[29],34.5%
same,"viability, T/C",[30],25.4%
COc1cc(C2c3cc4c(cc3C(OC3OC5COC(C)OC5C(O)C3O)C3COC(=O)C23)OCO4)cc(OC)c1O (stereo unspecified),"viability, T/C",compound 0.0316 µM,98.7% and 93.7% and 88.8%
same,"viability, T/C",compound 0.1 µM,86.3% and 90.8% and 80.8%
same,"viability, T/C",compound 0.316 µM,75.5% and 77.2% and 57%
same,"viability, T/C",compound 1 µM,44.2% and 51.9% and 53.8%
same,"viability, T/C",compound 3.16 µM,35.1% and 45.4% and 52.8%
same,"viability, T/C",compound 10 µM,35.9% and 30.7% and 53.1%
CCN(c1cc(-c2ccc(CN3CCOCC3)cc2)cc(C(=O)NCc2c(C)cc(C)[nH]c2=O)c1C)C1CCOCC1 + Cc1cncc(-c2nc(NCCc3c[nH]c4ccccc34)c3ncn(C(C)C)c3n2)c1,IC50,second compound 0.1 µM,> 3000 nM
same,IC50,second compound 0.316 µM,> 3000 nM
same,IC50,second compound 1 µM,> 3000 nM
same,IC50,second compound 3.16 µM,> 3000 nM
same,IC50,second compound 10 µM,< 9.49 nM
same,"viability, T/C","second compound 0.1 µM, first compound 0.00949 µM",72.4%
same,"viability, T/C","second compound 0.1 µM, first compound 0.03 µM",91.7%
same,"viability, T/C","second compound 0.1 µM, first compound 0.0949 µM",68.9%
same,"viability, T/C","second compound 0.1 µM, first compound 0.3 µM",70.9%
same,"viability, T/C","second compound 0.1 µM, first compound 0.949 µM",74.5%
same,"viability, T/C","second compound 0.1 µM, first compound 3 µM",63.9%
same,"viability, T/C","second compound 0.316 µM, first compound 0.00949 µM",97.3%
same,"viability, T/C","second compound 0.316 µM, first compound 0.03 µM",82.3%
same,"viability, T/C","second compound 0.316 µM, first compound 0.0949 µM",89%
same,"viability, T/C","second compound 0.316 µM, first compound 0.3 µM",76.1%
same,"viability, T/C","second compound 0.316 µM, first compound 0.949 µM",85%
same,"viability, T/C","second compound 0.316 µM, first compound 3 µM",76.8%
same,"viability, T/C","second compound 1 µM, first compound 0.00949 µM",69.5%
same,"viability, T/C","second compound 1 µM, first compound 0.03 µM",86.7%
same,"viability, T/C","second compound 1 µM, first compound 0.0949 µM",69.8%
same,"viability, T/C","second compound 1 µM, first compound 0.3 µM",72%
same,"viability, T/C","second compound 1 µM, first compound 0.949 µM",65%
same,"viability, T/C","second compound 1 µM, first compound 3 µM",57.5%
same,"viability, T/C","second compound 3.16 µM, first compound 0.00949 µM",66.1%
same,"viability, T/C","second compound 3.16 µM, first compound 0.03 µM",77.3%
same,"viability, T/C","second compound 3.16 µM, first compound 0.0949 µM",66.4%
same,"viability, T/C","second compound 3.16 µM, first compound 0.3 µM",67.3%
same,"viability, T/C","second compound 3.16 µM, first compound 0.949 µM",56.7%
same,"viability, T/C","second compound 3.16 µM, first compound 3 µM",54.4%
same,"viability, T/C","second compound 10 µM, first compound 0.00949 µM",40.6%
same,"viability, T/C","second compound 10 µM, first compound 0.03 µM",41.7%
same,"viability, T/C","second compound 10 µM, first compound 0.0949 µM",44.1%
same,"viability, T/C","second compound 10 µM, first compound 0.3 µM",33.4%
same,"viability, T/C","second compound 10 µM, first compound 0.949 µM",34.4%
same,"viability, T/C","second compound 10 µM, first compound 3 µM",32.5%
O=C(C=Cc1cccc(S(=O)(=O)Nc2ccccc2)c1)NO + Cc1ccccc1N=Nc1ccc(NC(=O)c2ccnn2C)c(C)c1,IC50,second compound 0.1 µM,568 nM
same,IC50,second compound 0.316 µM,419 nM
same,IC50,second compound 1 µM,457 nM
same,IC50,second compound 3.16 µM,266 nM
same,IC50,second compound 10 µM,338 nM
same,"viability, T/C",[1],95.4%
same,"viability, T/C",[2],95.6%
same,"viability, T/C",[11],75.8%
same,"viability, T/C",[12],24.8%
same,"viability, T/C",[13],5.9%
same,"viability, T/C",[14],0.79%
same,"viability, T/C",[3],94.8%
same,"viability, T/C",[4],91.9%
same,"viability, T/C",[15],54.7%
same,"viability, T/C",[16],26.2%
same,"viability, T/C",[17],5.71%
same,"viability, T/C",[18],0.82%
same,"viability, T/C",[5],84.3%
same,"viability, T/C",[6],94.1%
same,"viability, T/C",[19],60.3%
same,"viability, T/C",[20],23%
same,"viability, T/C",[21],6.42%
same,"viability, T/C",[22],0.59%
same,"viability, T/C",[7],77.1%
same,"viability, T/C",[8],62.2%
same,"viability, T/C",[23],49.9%
same,"viability, T/C",[24],25.4%
same,"viability, T/C",[25],8.47%
same,"viability, T/C",[26],0.58%
same,"viability, T/C",[9],59.1%
same,"viability, T/C",[10],55%
same,"viability, T/C",[27],53.5%
same,"viability, T/C",[28],29%
same,"viability, T/C",[29],10.8%
same,"viability, T/C",[30],1.49%
